These results are taken from US9556231B2, “Beta-hairpin peptidomimetics as CXC4 antagonists” (POLYPHOR AG, priority 2011, dated 2017).

Where two headings read alike, the source gives them in different places. Bridge positions count the residues as written; N and C are the ends. Square brackets hold non-standard residues; d marks the D form. Peptide text beside a SMILES is read from it. Lys(iPr) = CC(C)NCCCC[C@H](N)C(=O)O; Orn(iPr) = CC(C)NCCC[C@H](N)C(=O)O Where only a bound is given, the exact number is not on record here.

The term GI50 denotes the concentration giving 50% growth inhibition. As a reminder, the AUC(0-inf) is total exposure, with the tail of the curve extrapolated. Usually Cmax stands for the highest concentration seen after dosing. For orientation: clearance means a measure of how efficiently the substance is removed, as volume per time. Usually half-life stands for the time in which the quantity being followed falls by half.

Series [1] in a line: Cytotoxicity, MTT reduction assay, COS-7 cells. The format is cell-based. The note with it: African green monkey. As to the method: Namalwa cells (CXCR4 natively expressing non-adherent cells, ATCC CRL-1432) were cultured in RPMI1640 plus 10% FBS, and pen/strept. HELA cells were maintained in RPMI1640 plus 10% FBS, pen/strept and 2 mM L-glutamine. Cos-7 cells were grown in DMEM medium with […] glucose supplemented with 10% FCS, pen/strept and 2 mM L-glutamine. All cell lines were grown at 37° C. at 5% CO2. Cell media, media supplements, PBS-buffer, HEPES, antibiotic/antimycotic, pen/strept, non essential amino acid, L-glutamine, β-mercaptoethanol and sera were purchased from Gibco (Pailsey, UK). All fine chemicals were supplied by Merck (Darmstadt, Germany).
The cytotoxicity of the peptides to HELA cells (Acc57) and COS-7 cells (CRL-1651) was determined using the MTT reduction assay (T. Mossman, J. Immunol. Meth. 1983, 65, 55-63; M. V. Berridge, A. S. Tan, Arch. Biochem. Biophys. 1993, 303, 474-482). Briefly, the method was as follows: 4000 HELA cells/well and 3400 COS-7 cells/well were seeded and grown in 96-well microtiter plates for 24 h at 37° C. at 5% CO2. Thereafter, time zero (Tz) was determined by MTT reduction (see below). The supernatant of the remaining wells was discarded, and fresh medium and compounds in serial dilutions (12.5, 25 and 50 μM, triplicates; 0 μM, blank) were pipetted into the wells. After incubation of the cells for 48 h at 37° C. at 5% CO2 the supernatant was discarded again and 100 μL MTT reagent (0.5 mg/mL in RPMI1640 and DMEM, respectively)/well was added. Following incubation at 37° C. for 2-4 h the media were aspirated and the cells were spiked (100 μL isopropanol/well). The absorbance of the solubilized formazan was measured at 595 nm (OD595peptide). For each concentration averages were calculated from triplicates. The percentage of growth was calculated as follows: (OD595peptide−OD595Tz)/(OD595blank−OD595Tz)×100%. The GI50 (Growth Inhibition) concentrations were calculated for each peptide by using a trend line function for the concentrations (50, 25, 12.5 and 0 μM), the corresponding percentages and the value 50, (=TREND (C50:C0,%50:%0,50).
Background: Tetrazolium assays rely on reduction of a dye to a coloured formazan, in cell work by metabolically active cells.

Series [2] in a line: Pharmacokinetic study (PK), i.v., CD-1 mice. The format is in vivo. Particulars: mouse, i.v. 1 mg/kg; for AUC(0-inf) / Cmax / clearance / half-life / Vd: one-compartmental model; for Vd: read-out: Vdis. The procedure:
For the compounds of Ex. 1, Ex. 2, Ex. 3, Ex. 4, Ex. 5 and Ex. 6 pharmacokinetic studies after intravenous (i.v.) administration were performed.
30 grams (±20%) male CD-1 mice obtained from Charles River Laboratories Deutschland GmbH were used. The vehicle, phosphate buffered saline, was added to give a final concentration of 0.5 mg/mL of the compound. The volume was 2 mL/kg and the compound was injected to give a final intravenous dose of 1 mg/kg. Approximately 300-400 μL of blood was removed under light isoflurane anesthesia by cardiac puncture at predetermined time intervals (5, 15, 30 min and 1, 2, 3, 4, hours) and added to heparinized tubes. Plasma was removed from pelleted cells upon centrifugation and frozen at −80° C. prior to HPLC-MS analysis.
Aliquots of 50 μL each of mouse plasma of untreated aminals (“blank” mouse plasma) were spiked with known amounts of the compounds Ex. 1, Ex. 2, Ex. 3, Ex. 4, Ex. 5 and Ex. 6 in order to obtain 10 plasma calibration samples for each compound in the range 1-4000 ng/mL. Aliquots of 50 μL each of mouse plasma from treated animals were used as plasma study samples.
All plasma samples were spiked with an appropriate internal standard and extracted with acetonitrile containing 2% formic acid. Supernatants were evaporated to dryness under nitrogen and the remaining solids reconstituted in water/acetonitrile 95/5 (v/v)+0.2% formic acid.
Extracts were then analyzed by reverse-phase chromatography (Acquity BEH C18, 100×2.1 mm, 1.7 μm column, Waters for Ex. 1 and Acquity HSS C18 SB, 100×2.1 mm, 1.8 μm column, Waters for Ex. 2, Ex. 3, Ex. 4, Ex. 5 and Ex. 6), using the following conditions: Ex. 1, mobile phases: (A) water/acetonitrile 95/5 (v/v)+0.1% formic acid, (B) acetonitrile/water 95/5 (v/v)+0.1% formic acid, gradient: 1% (B) 0-0.1 min, 15% (B) 0.1-2.5 min for Ex. 1 and 1% (B) 0-0.1 min, 40% (B) 0.1-2.5 min for Ex. 2, Ex. 3, Ex. 4, Ex. 5 and Ex. 6. The detection and quantification was performed by mass spectrometry, with electrospray interface in positive mode and selective fragmentation of analytes (4000 Q Trap mass spectrometer, AB Sciex).
PK parameters were calculated by WinNonLin™ software version 5.3 (Pharsight-A Certara™ Company, Mountain View, Calif. 94041 USA) using a one-compartmental model analysis. PK parameters were determined by least-square fitting of the model to the experimental data.

The test system of a further series is HSC mobilization. As to the kind of experiment: HSC mobilization in mouse, dose-response study (CFU-C assay). The format is in vivo. Particulars: C57Bl/6 mice, 5 mg/kg i.p., at time of maximum mobilization (Ex. 1 4 h, Ex. 2 2 h). As to the method: For the compounds of Ex. 1 and Ex. 2 a HSC mobilization study was performed consisting of a time-response study to assess the time of maximum mobilization after dosing and a subsequent dose-response study.
Male C57Bl/6 mice (Janvier, France; n=5 per dose group for Ex. 1, n=3 per dose group for Ex. 2) received bolus i.p. injections of Ex. 1 and Ex. 2, respectively, at doses of 0.5, 1.5, 5 and 15 mg/kg (compound dissolved in 10 μL of water per g mouse weight containing 0.9% NaCl). Blood was collected as described above at the time of maximum mobilization for Ex. 1 (4 h) and Ex. 2 (2 h), respectively.
CFU-C counts were determined by culturing aliquots of lysed peripheral blood in standard semi-solid progenitor cell culture medium. In brief, a defined amount of blood was washed with PBS buffer (Gibco®) containing 0.5% bovine serum albumin, followed by red blood cell lysis in hypotonic NH4Cl buffer (Sigma) and a second wash step. The cell pellet was resuspended in DMEM (Gibco®) containing 10% FCS, suspended in 2 mL of commercially available, cytokine-replete methylcellulose medium for murine cells (Cell Systems, USA), and plated in duplicate into 35 mm cell culture dishes. CFU-C were scored after 7-8 days incubation under standard conditions (20% O2, saturated humidity, 5% CO2, 37° C.). Peripheral blood cellularity was analyzed using an automated blood count machine (Drew Scientific). […]

[3] abbreviates: male, CD-1, in vivo, iv, read-out: Calc. Conc. (plasma).

Turning to `COc1ccc(C[C@@H]2NC(=O)[C@H](Cc3c[nH]cn3)NC(=O)[C@H](Cc3ccc(O)cc3)NC(=O)[C@@H]3CCCN3C(=O)[C@H]3CCCN3C(=O)[C@H](CCCCNC(C)C)NC(=O)[C@H](CCC(N)=O)NC(=O)[C@H](Cc3ccc(O)cc3)NC(=O)[C@@H]3CSSC[C@H](NC2=O)C(=O)N[C@@H](CO)C(=O)N[C@@H](C)C(=O)N2CCC[C@@H]2C(=O)N[C@@H](CCCNC(C)C)C(=O)N[C@@H](CCCNC(=N)N)C(=O)N[C@@H](Cc2ccc(O)cc2)C(=O)N3)cc1` [Ex. 2, cyclo(-Tyr^1-His^2-Tyr(Me)^3-Cys^4-Ser^5-Ala^6-^DPro^7-Orn(iPr)^8-Arg^9-Tyr^10-Cys^11-Tyr^12-Gln^13-Lys(iPr)^14-^DPro^15-Pro^16-), disulfide bond between Cys^4 and Cys^11] (cyclo(YHY(Me)CSA[dP][Orn(iPr)]RYCYQ[Lys(iPr)][dP]P); disulfide 4-11), the GI50 at 48 h in series [1] was above 50 µM. Further, in series [2] (setting [3]), the level at 0.083 h was 1430 ng/mL, the level at 0.25 h is 1300 ng/mL, the level at 0.5 h is 836 ng/mL and the level at 1 h is 578 ng/mL. In series [2] (setting [3]), the level at 2 h is 234 ng/mL and the level at 3 h is 68 ng/mL. The level at 4 h in series [2] (male, CD-1, in vivo, iv, 4 h, read-out: Calc. Conc. (plasma)) was 22 ng/mL. In series [2] (male, CD-1, in vivo, iv), this molecule had an AUC(0-inf) of 1520 ng·h/mL, a Cmax of 1580 ng/mL, a clearance of 11 mL/min/kg and a half-life of 42 min. For the same molecule, the Vd in series [2] (male, CD-1, in vivo, iv) worked out at 0.635 L/kg. In addition, the “CFU/mL ± SD” value in the series on HSC mobilization is 2894 CFU/mL.

Regarding `COc1ccc(C[C@@H]2NC(=O)[C@H](Cc3c[nH]cn3)NC(=O)[C@H](Cc3ccc(O)cc3)NC(=O)[C@@H]3CCCN3C(=O)[C@H]3CCCN3C(=O)[C@H](CCCCNC(C)C)NC(=O)[C@H](CCC(N)=O)NC(=O)[C@H](Cc3ccc(O)cc3)NC(=O)[C@@H]3CSSC[C@H](NC2=O)C(=O)N[C@@H](CO)C(=O)N[C@@H](C)C(=O)N[C@H](Cc2ccc(OC)cc2)C(=O)N[C@@H](CCCNC(C)C)C(=O)N[C@@H](CCCNC(=N)N)C(=O)N[C@@H](Cc2ccc(O)cc2)C(=O)N3)cc1` [Ex. 6, cyclo(-Tyr^1-His^2-Tyr(Me)^3-Cys^4-Ser^5-Ala^6-^DTyr(Me)^7-Orn(iPr)^8-Arg^9-Tyr^10-Cys^11-Tyr^12-Gln^13-Lys(iPr)^14-^DPro^15-Pro^16-), disulfide bond between Cys^4 and Cys^11] (cyclo(YHY(Me)CSA[dY](Me)[Orn(iPr)]RYCYQ[Lys(iPr)][dP]P); disulfide 4-11), the GI50 at 48 h in series [1] (MTT, 48 h, up to 50 μM, read-out: Cytotoxicity Cos-7 Cells GI50) was above 50 µM. In addition, in series [2] (setting [3]), the level at 0.083 h is 686 ng/mL, the level at 0.25 h was 435 ng/mL, the level at 0.5 h was 215 ng/mL and the level at 1 h is 75 ng/mL. Also, in series [2] (setting [3]), the level at 2 h was 36 ng/mL and the level at 3 h was 13 ng/mL. In series [2] (male, CD-1, in vivo, iv), the AUC(0-inf) is 409 ng·h/mL, the Cmax came out at 686 ng/mL, the clearance is 40.8 mL/min/kg and the half-life is 48 min. The Vd in series [2] (male, CD-1, in vivo, iv) was found to be 2.98 L/kg. In addition, the “Calc. Conc. (plasma)” value in series [2] (4 h) was 7 ng/mL.
